How the values were obtained:
Assay in all cases: biochemical
Conditions in all cases: read-out: % inhibition mean (Z'Lyte)
SNF1LK2 = SNF1LK2 (Homo sapiens, UniProt Q9H0K1)
RET = RET (Homo sapiens, UniProt P07949)
CHEK1 (CHK1) = CHEK1 (CHK1) (Homo sapiens, UniProt O14757)
PRKACA (PKA) = PRKACA (PKA) (Homo sapiens, UniProt P17612)
NEK9 = NEK9 (Homo sapiens, UniProt Q8TD19)
GRK4 = GRK4 (Homo sapiens, UniProt P32298)
AMPK (A2/B2/G3) = AMPK (A2/B2/G3) (Homo sapiens, UniProt P54646)
KIT V560G = KIT V560G (Homo sapiens, UniProt P10721, V560G)
RET Y791F = RET Y791F (Homo sapiens, UniProt P07949, Y791F)
PIM1 = PIM1 (Homo sapiens, UniProt P11309)
STK25 (YSK1) = STK25 (YSK1) (Homo sapiens, UniProt O00506)
DCAMKL1 (DCLK1) = DCAMKL1 (DCLK1) (Homo sapiens, UniProt O15075)
PKN1 (PRK1) = PKN1 (PRK1) (Homo sapiens, UniProt Q16512)
MAPK1 (ERK2) = MAPK1 (ERK2) (Homo sapiens, UniProt P28482)
PDGFRA (PDGFR alpha) = PDGFRA (PDGFR alpha) (Homo sapiens, UniProt P16234)
EGFR (ErbB1) T790M = EGFR (ErbB1) T790M (Homo sapiens, UniProt P00533, T790M)
AMPK (A2/B1/G2) = AMPK (A2/B1/G2) (Homo sapiens, UniProt P54646)
ROS1 = ROS1 (Homo sapiens, UniProt P08922)
Chain of ROS1 (P08922 whole entry): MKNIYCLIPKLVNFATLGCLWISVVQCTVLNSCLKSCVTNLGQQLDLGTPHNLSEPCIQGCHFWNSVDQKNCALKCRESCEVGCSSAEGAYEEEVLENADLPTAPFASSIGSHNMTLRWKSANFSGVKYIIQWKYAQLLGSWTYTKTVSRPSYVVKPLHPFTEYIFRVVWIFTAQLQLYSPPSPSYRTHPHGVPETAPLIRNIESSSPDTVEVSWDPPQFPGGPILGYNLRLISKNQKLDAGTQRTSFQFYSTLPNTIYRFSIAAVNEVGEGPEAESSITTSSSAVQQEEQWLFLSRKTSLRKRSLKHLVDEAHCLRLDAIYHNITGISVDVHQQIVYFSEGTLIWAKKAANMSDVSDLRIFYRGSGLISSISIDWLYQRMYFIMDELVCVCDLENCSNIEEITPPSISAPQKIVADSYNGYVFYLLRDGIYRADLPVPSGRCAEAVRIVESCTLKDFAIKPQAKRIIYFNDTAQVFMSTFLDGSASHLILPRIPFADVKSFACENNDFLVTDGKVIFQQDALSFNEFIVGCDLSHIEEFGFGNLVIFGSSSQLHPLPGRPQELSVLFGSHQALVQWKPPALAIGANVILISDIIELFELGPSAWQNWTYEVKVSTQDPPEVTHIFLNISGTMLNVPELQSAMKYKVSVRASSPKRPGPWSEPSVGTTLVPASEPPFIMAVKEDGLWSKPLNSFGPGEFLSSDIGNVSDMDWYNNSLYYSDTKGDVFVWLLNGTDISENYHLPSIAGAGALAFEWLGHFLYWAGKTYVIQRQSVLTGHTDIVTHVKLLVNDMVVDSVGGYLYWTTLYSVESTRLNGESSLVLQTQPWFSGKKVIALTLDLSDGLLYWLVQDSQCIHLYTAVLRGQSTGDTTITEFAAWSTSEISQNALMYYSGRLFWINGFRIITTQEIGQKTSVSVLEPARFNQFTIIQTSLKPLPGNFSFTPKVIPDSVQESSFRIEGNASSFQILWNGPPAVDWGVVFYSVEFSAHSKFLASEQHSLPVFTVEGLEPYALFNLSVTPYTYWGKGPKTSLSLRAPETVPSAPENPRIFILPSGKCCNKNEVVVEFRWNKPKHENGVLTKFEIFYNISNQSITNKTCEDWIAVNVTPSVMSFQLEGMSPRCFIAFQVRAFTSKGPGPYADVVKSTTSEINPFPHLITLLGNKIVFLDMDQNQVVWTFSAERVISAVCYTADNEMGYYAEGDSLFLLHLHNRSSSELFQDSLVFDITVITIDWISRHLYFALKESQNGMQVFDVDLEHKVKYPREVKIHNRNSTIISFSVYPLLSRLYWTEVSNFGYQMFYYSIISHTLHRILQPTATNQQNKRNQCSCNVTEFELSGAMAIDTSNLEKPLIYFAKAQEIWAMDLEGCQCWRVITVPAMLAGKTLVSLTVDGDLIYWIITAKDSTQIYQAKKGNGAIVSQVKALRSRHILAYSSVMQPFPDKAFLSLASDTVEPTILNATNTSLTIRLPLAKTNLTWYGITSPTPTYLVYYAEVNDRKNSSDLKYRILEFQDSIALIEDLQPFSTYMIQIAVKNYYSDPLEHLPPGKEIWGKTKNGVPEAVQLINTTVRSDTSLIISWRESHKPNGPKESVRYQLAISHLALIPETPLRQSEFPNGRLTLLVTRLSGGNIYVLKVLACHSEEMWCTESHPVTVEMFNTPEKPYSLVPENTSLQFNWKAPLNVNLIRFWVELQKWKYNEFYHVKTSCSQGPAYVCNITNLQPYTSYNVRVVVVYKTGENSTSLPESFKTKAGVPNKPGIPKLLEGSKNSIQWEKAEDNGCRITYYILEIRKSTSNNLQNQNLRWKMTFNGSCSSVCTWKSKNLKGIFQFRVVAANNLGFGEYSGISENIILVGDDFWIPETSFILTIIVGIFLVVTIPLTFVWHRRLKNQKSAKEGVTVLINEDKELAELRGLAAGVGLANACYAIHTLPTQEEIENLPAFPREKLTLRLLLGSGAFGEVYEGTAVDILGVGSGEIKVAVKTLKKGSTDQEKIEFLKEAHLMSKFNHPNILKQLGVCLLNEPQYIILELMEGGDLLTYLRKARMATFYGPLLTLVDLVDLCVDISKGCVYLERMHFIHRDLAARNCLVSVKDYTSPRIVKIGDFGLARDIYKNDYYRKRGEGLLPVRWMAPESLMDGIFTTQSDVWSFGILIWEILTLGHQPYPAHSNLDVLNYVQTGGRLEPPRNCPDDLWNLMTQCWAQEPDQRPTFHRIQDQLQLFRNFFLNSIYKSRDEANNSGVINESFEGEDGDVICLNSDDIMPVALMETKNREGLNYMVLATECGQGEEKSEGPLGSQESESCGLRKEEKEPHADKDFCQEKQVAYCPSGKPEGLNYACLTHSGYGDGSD

MST1R (RON) = MST1R (RON) (Homo sapiens, UniProt Q04912)
IKBKB (IKK beta) = IKBKB (IKK beta) (Homo sapiens, UniProt O14920)
ERBB4 (HER4) = ERBB4 (HER4) (Homo sapiens, UniProt Q15303)
NTRK1 (TRKA) = NTRK1 (TRKA) (Homo sapiens, UniProt P04629)
MERTK (cMER) = MERTK (cMER) (Homo sapiens, UniProt Q12866)
ABL2 (Arg) = ABL2 (Arg) (Homo sapiens, UniProt P42684)
Chain of ABL2 (Arg) (P42684 whole entry): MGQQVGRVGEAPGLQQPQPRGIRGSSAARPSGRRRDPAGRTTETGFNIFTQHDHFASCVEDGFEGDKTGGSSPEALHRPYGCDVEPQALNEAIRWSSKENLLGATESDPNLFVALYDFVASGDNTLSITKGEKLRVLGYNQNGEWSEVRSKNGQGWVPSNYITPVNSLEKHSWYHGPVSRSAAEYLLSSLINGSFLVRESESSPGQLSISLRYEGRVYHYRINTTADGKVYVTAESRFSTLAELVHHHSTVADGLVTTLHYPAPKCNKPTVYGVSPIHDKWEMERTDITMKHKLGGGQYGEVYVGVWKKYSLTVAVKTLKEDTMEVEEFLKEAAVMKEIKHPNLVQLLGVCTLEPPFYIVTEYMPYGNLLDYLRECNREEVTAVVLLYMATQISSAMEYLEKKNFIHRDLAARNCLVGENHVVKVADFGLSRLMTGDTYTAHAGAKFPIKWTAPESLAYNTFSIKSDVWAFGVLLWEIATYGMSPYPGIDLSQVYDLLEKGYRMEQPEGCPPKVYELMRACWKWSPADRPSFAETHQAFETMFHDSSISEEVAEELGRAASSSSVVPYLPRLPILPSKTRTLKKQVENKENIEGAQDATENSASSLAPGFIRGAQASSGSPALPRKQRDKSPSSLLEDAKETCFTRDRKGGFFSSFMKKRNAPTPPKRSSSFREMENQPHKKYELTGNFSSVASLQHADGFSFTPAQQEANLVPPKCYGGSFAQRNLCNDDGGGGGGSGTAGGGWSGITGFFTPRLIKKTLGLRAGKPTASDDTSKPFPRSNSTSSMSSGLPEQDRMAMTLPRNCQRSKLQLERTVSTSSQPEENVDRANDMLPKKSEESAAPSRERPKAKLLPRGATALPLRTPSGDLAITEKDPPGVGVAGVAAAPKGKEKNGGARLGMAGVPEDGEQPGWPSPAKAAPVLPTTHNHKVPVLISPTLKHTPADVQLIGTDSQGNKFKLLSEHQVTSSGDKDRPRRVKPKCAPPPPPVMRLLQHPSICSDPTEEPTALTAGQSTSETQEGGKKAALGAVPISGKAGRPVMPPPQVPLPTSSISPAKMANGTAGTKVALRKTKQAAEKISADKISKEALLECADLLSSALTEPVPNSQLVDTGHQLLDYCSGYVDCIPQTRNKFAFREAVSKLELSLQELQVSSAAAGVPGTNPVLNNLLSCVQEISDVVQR

PIM3 = PIM3 (Homo sapiens, UniProt Q86V86)
PIM2 = PIM2 (Homo sapiens, UniProt Q9P1W9)
AMPK (A1/B2/G2) = AMPK (A1/B2/G2) (Homo sapiens, UniProt Q13131)
Chain of AMPK (A1/B2/G2) (Q13131 whole entry): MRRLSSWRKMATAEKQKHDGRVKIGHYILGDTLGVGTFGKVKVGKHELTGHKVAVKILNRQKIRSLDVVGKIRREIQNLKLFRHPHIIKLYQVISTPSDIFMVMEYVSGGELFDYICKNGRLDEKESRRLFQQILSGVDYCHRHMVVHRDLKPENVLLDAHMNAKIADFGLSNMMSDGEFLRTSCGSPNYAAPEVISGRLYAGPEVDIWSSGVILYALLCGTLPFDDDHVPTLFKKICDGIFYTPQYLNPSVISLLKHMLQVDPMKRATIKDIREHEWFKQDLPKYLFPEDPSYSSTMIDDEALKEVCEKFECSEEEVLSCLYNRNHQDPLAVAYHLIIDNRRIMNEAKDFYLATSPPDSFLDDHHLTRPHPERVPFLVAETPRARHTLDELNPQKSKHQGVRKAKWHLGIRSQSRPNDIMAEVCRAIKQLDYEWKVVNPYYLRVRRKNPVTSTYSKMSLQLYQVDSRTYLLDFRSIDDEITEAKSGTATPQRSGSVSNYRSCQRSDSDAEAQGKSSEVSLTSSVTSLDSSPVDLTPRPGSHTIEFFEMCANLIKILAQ
Chain of AMPK (A1/B2/G2) (O43741 whole entry partner): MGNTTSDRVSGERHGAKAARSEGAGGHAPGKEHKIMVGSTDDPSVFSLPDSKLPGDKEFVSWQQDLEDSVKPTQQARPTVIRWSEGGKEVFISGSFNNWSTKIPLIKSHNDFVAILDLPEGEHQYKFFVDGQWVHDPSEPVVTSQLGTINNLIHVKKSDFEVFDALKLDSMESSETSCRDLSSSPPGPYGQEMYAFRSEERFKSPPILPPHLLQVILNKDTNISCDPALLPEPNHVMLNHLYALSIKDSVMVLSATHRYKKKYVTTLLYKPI
Chain of AMPK (A1/B2/G2) (Q9UGJ0 whole entry partner): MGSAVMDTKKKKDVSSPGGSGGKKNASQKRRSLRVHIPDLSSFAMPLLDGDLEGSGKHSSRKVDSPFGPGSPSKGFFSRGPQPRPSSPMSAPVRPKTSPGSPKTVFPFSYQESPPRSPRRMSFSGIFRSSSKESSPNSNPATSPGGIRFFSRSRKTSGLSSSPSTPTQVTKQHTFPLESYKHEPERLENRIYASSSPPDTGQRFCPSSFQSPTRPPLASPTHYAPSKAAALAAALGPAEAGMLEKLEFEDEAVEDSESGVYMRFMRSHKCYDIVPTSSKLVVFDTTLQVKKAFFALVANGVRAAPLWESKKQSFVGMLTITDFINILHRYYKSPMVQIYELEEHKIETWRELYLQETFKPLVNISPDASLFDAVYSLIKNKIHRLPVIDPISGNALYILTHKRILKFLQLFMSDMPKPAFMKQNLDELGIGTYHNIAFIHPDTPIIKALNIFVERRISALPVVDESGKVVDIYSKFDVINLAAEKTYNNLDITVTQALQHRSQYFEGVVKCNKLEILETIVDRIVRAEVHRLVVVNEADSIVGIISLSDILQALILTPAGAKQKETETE

ALK = ALK (Homo sapiens, UniProt Q9UM73)
ERBB2 (HER2) = ERBB2 (HER2) (Homo sapiens, UniProt P04626)

COc1ccc2nc3cc(Cl)ccc3c(Nc3cc(CN4CCCC4)c(O)c(CN4CCCC4)c3)c2n1 [Pyronaridine, 4-[(7-Chloro-2-methoxybenzo[b][1,5]naphthyridin-10-yl)amino]-2,6-bis(1-pyrrolidinylmethyl)phenol phosphate (1:4)]
inhibition at 1 µM (SNF1LK2): -5% | inhibition at 1 µM (RET): 5% | inhibition at 1 µM (CHEK1 (CHK1)): 8% | inhibition at 1 µM (PRKACA (PKA)): 1% | inhibition at 1 µM (NEK9): 0% | inhibition at 1 µM (GRK4): 25% | inhibition at 1 µM (AMPK (A2/B2/G3)): 2% | inhibition at 1 µM (KIT V560G): -5% | inhibition at 1 µM (RET Y791F): 5% | inhibition at 1 µM (PIM1): 8% | inhibition at 1 µM (STK25 (YSK1)): -7% | inhibition at 1 µM (DCAMKL1 (DCLK1)): 0% | inhibition at 1 µM (PKN1 (PRK1)): 1% | inhibition at 1 µM (MAPK1 (ERK2)): -1% | inhibition at 1 µM (PDGFRA (PDGFR alpha)): 2% | inhibition at 1 µM (EGFR (ErbB1) T790M): 2% | inhibition at 1 µM (AMPK (A2/B1/G2)): 1% | inhibition at 1 µM (ROS1): -6% | inhibition at 1 µM (MST1R (RON)): 2% | inhibition at 1 µM (IKBKB (IKK beta)): 1% | inhibition at 1 µM (ERBB4 (HER4)): -2% | inhibition at 1 µM (NTRK1 (TRKA)): 19% | inhibition at 1 µM (MERTK (cMER)): 2% | inhibition at 1 µM (ABL2 (Arg)): 2% | inhibition at 1 µM (PIM3): 12% | inhibition at 1 µM (PIM2): -4% | inhibition at 1 µM (AMPK (A1/B2/G2)): -2% | inhibition at 1 µM (ALK): -1% | inhibition at 1 µM (ERBB2 (HER2)): 2%

Source: publication doi:10.1101/2021.09.30.462449v1 (biorxiv, 2021)
